Test systems include DMS-114; DMS-273; HOP-18; KM-20L2; LXFL 529; M19-MEL; RXF 631; SNB-78; XF498.
What all share (test): NCI-60 cell line screen, 48 h

25 compounds from ChEMBL document CHEMBL1201862, “PubChem BioAssay data set” (2004) can be followed below.

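In this assay, cells in 96-well plates receive the compound at five concentrations for 48 hours. Endpoints are linearly interpolated between the surrounding concentrations. GI50 marks 50% less growth.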 The source made the active and inactive calls. No stated cut-off is given here; in the data, active = GI50 up to about 1.1 µM and inactive = higher. A value given as a limit tells only on which side of the number the result lay.

In the case of `O=C(Nc1nc2ncn(CCO)c2c(=S)[nH]1)c1ccccc1`, the GI50 with DMS-114, with DMS-273, with HOP-18, in the experiment on KM-20L2, in the experiment with LXFL 529 and with M19-MEL was > 100 µM (inactive) in each case. Moreover, the values for the GI50 in the experiment on RXF 631, in the experiment on SNB-78 and in the experiment on XF498 were > 10 µM (inactive), > 100 µM (inactive) and > 100 µM (inactive), respectively.

For the compound `COc1cc2c(c(OC)c1OC)-c1ccc(SC)c(=O)cc1[C@@H](NCc1ccc(F)cc1)CC2`, the GI50 in the experiment with DMS-273 is < 0.0075 µM (active); in the experiment on HOP-18 it was 9.1 µM (inactive); in the experiment with KM-20L2, < 0.0075 µM (active); with LXFL 529, < 0.0075 µM (active); in the experiment with RXF 631, < 0.0075 µM (active); in the experiment on SNB-78, < 0.0075 µM (active). For the same compound, the GI50 with XF498 is < 0.0075 µM (active).

With `COc1ccc(C(=O)O/N=C2\CCCC\C2=C/c2ccccc2)cc1`, the GI50 was 80.7 µM (inactive) in the experiment with DMS-114; > 100 µM (inactive) in the experiment on DMS-273; 51.5 µM (inactive) with HOP-18; > 100 µM (inactive) with KM-20L2; > 100 µM (inactive) with LXFL 529; > 100 µM (inactive) with M19-MEL. The GI50 in the experiment on RXF 631 was > 100 µM (inactive); with SNB-78, 34 µM (inactive); in the experiment with XF498 it was 35.5 µM (inactive).

As for `CC(C)NC(C)C(C)c1ccccc1` (stereo unspecified), the GI50 in the experiment with DMS-114, with DMS-273, in the experiment with KM-20L2, in the experiment on LXFL 529, with M19-MEL and in the experiment with XF498 was > 100 µM (inactive) in each case.

With `Cc1ccc(C2=NO[C@@H]3C(=O)N(c4ccc(Cc5ccc(N6C(=O)[C@H]7C(c8ccc(C)cc8)=NO[C@H]7C6=O)cc5)cc4)C(=O)[C@H]23)cc1`, the GI50 in the experiment on DMS-114, in the experiment with DMS-273, in the experiment with HOP-18, with KM-20L2, with LXFL 529 and with M19-MEL was > 100 µM (inactive) each time. Also, the GI50 in the experiment on RXF 631, in the experiment with SNB-78 and in the experiment with XF498 was > 100 µM (inactive) each time.

`Cc1ccccc1Cn1nc2ccccc2cc1=O`: the GI50 in the experiment on DMS-114, in the experiment on DMS-273, in the experiment with HOP-18, in the experiment with KM-20L2, in the experiment on M19-MEL and in the experiment on SNB-78 was > 100 µM (inactive) each time. In addition, the GI50 with XF498 was > 100 µM (inactive).

Consider `Cc1nc2cc(N)c(F)cc2[nH]1`, for which the GI50 in the experiment with DMS-114, with DMS-273, in the experiment with LXFL 529, with M19-MEL, in the experiment with SNB-78 and with XF498 was > 100 µM (inactive) throughout.

Consider `Cc1cccc(C)c1N1C(=O)C(=O)C(c2nc3ccccc3s2)/C(=N\N)C1=O` (stereo unspecified), for which the GI50 in the experiment on DMS-114 is 60.8 µM (inactive); with DMS-273 it was > 100 µM (inactive); in the experiment with HOP-18, 49.7 µM (inactive); in the experiment on KM-20L2, > 100 µM (inactive); with LXFL 529, 40.8 µM (inactive); in the experiment with M19-MEL, > 100 µM (inactive). Besides, the GI50 with RXF 631 and in the experiment on SNB-78 was > 100 µM (inactive) in each case.

For the compound `CC(C)C(=O)N[C@@H](C)C(=O)N(Cc1ccc2ccccc2c1)N=O`, the GI50 was 33.7 µM (inactive) in the experiment with DMS-114; 28.8 µM (inactive) in the experiment with DMS-273; 0.057 µM (active) in the experiment with HOP-18; > 100 µM (inactive) in the experiment on KM-20L2; 71.9 µM (inactive) in the experiment with LXFL 529; 97.7 µM (inactive) with M19-MEL. Further, the GI50 with SNB-78 and with XF498 was > 100 µM (inactive) each time.

Regarding `COC(=O)C(Cc1nc2ccc(Cl)cc2nc1O)/C(=N\N)C(=O)Nc1cc(C)c(Cl)cc1S(=O)(=O)O` (stereo unspecified), the values for the GI50 with DMS-114, in the experiment with LXFL 529 and in the experiment on SNB-78 were 73.5 µM (inactive), > 100 µM (inactive) and > 100 µM (inactive), respectively.

For `CCOC(=O)C(OCC1CC=CCC1)Sc1ccccc1` (stereo unspecified), the GI50 with DMS-114, with DMS-273, in the experiment with HOP-18, in the experiment on KM-20L2, in the experiment on LXFL 529 and in the experiment on M19-MEL was > 100 µM (inactive) each time. For the same compound, in the experiment on SNB-78, the GI50 is > 100 µM (inactive).

For the compound `CC(C)=CC(=O)CC(=O)C(=O)NCCNC(=O)C(=O)CC(=O)C=C(C)C`, the GI50 in the experiment on DMS-114, with DMS-273, with HOP-18, with KM-20L2, in the experiment on LXFL 529 and in the experiment on M19-MEL was > 50 µM (inactive) in each case. Also, the GI50 in the experiment with SNB-78 and in the experiment on XF498 was > 50 µM (inactive) throughout.

Regarding `COC1[C@H](NC(=O)OC(C)(C)C)C(=O)N1Cc1ccccc1` (stereo partly specified), the GI50 in the experiment on DMS-114, in the experiment with DMS-273, in the experiment with KM-20L2, with LXFL 529, in the experiment on M19-MEL and in the experiment with SNB-78 was > 100 µM (inactive) in each case. Moreover, the GI50 in the experiment on XF498 is > 100 µM (inactive).

Consider `O=C1C/C(Br)=C\c2ccccc2-c2ccccc21`, for which the GI50 in the experiment with DMS-114 was 2.79 µM (inactive); in the experiment on DMS-273 it was 2.19 µM (inactive); with HOP-18, 4.48 µM (inactive); with KM-20L2, 2.84 µM (inactive); in the experiment on LXFL 529, 1.73 µM (inactive); with M19-MEL it was 1.87 µM (inactive). In addition, the results for the GI50 with SNB-78 and in the experiment with XF498 were 3.85 µM (inactive) and 1.76 µM (inactive), respectively.

In the case of `CCCC(=O)Nc1ccc(O)c2c1C1CCCCCC21` (stereo unspecified), the GI50 was 50.2 µM (inactive) with DMS-114; > 100 µM (inactive) in the experiment on DMS-273; > 100 µM (inactive) in the experiment on HOP-18; > 100 µM (inactive) in the experiment on KM-20L2; > 100 µM (inactive) in the experiment with LXFL 529; > 100 µM (inactive) in the experiment with M19-MEL. Also, the GI50 with SNB-78 is > 100 µM (inactive); in the experiment with XF498, 65 µM (inactive).

Consider `O=C1C=C2CCCC2C(C(=O)O)(C(=O)O)C1` (stereo unspecified), for which the GI50 in the experiment with DMS-114, in the experiment with DMS-273, with LXFL 529, with M19-MEL, in the experiment on RXF 631 and with SNB-78 was > 100 µM (inactive) throughout. The GI50 with XF498 was > 100 µM (inactive).

For the compound `O=C1C=C(O)C(=Cc2c(O)cc(O)cc2O)C(O)=C1`, the GI50 in the experiment on DMS-114, in the experiment on DMS-273, with HOP-18, in the experiment on KM-20L2, in the experiment on LXFL 529 and in the experiment with M19-MEL was > 100 µM (inactive) each time. Moreover, the GI50 in the experiment with RXF 631, in the experiment on SNB-78 and with XF498 was > 100 µM (inactive) each time.

Consider `O=C(CCC(=O)Nc1ccc(Cl)cc1)CC(=O)c1ccc2ccccc2c1`, for which the GI50 in the experiment with DMS-114, in the experiment with DMS-273, in the experiment on HOP-18, with KM-20L2, in the experiment on LXFL 529 and with M19-MEL was > 100 µM (inactive) each time. Besides, the GI50 in the experiment on RXF 631 and in the experiment on SNB-78 was > 100 µM (inactive) each time.

For `C#Cc1ccccc1N1C(=O)C=CC1=O`, the GI50 in the experiment on DMS-114, with KM-20L2, in the experiment with LXFL 529, in the experiment with M19-MEL and with SNB-78 was > 100 µM (inactive) each time.

Regarding `Cc1ccc(NC(=O)C(=O)C(C2C(C)CC(=O)C2CC(=O)O)[N+](=O)[O-])cc1` (stereo unspecified), the GI50 in the experiment on DMS-114, in the experiment with KM-20L2, with LXFL 529, in the experiment with SNB-78 and in the experiment with XF498 was > 100 µM (inactive) in each case.

As for `C1OC1CN1CCN(CC2CO2)CC1` (stereo unspecified), the GI50 with DMS-114 is 12.8 µM (inactive); with DMS-273, 16.1 µM (inactive); in the experiment on HOP-18, 66.7 µM (inactive); in the experiment on KM-20L2 it was > 100 µM (inactive); in the experiment on LXFL 529 it was > 100 µM (inactive); in the experiment on M19-MEL it was > 100 µM (inactive). For the same compound, the GI50 in the experiment on SNB-78 and in the experiment on XF498 was > 100 µM (inactive) each time.

For the compound `COC(=O)c1nn(-c2ccccc2)c(=O)cc1N=[N+]=[N-]`, the GI50 in the experiment with DMS-114, with DMS-273, with KM-20L2, with LXFL 529, with M19-MEL and in the experiment with SNB-78 was > 100 µM (inactive) in each case. Further, the GI50 with XF498 was > 100 µM (inactive).

Take `C#CCNC(=O)NCCCC(NC(C)=O)C(=O)NCc1ccccc1` (stereo unspecified): the GI50 in the experiment on DMS-114, with HOP-18, in the experiment with KM-20L2, in the experiment with LXFL 529, in the experiment with M19-MEL and in the experiment on RXF 631 was > 100 µM (inactive) throughout. Further, the GI50 with SNB-78 was > 100 µM (inactive).

Take `CCCC(=O)C(CC)/C(CCC(=O)N(Cc1ccccc1)Cc1ccccc1)=N/NC(=O)C[N+](C)(C)C` (stereo unspecified): the GI50 in the experiment on DMS-114, in the experiment on DMS-273, with HOP-18, in the experiment with KM-20L2, with LXFL 529 and in the experiment with M19-MEL was > 100 µM (inactive) throughout. Moreover, the GI50 in the experiment on SNB-78 was > 100 µM (inactive); in the experiment on XF498 it was 65.2 µM (inactive).

`O=C1NC2=C(CCCCC/C2=N\O)C12CCCCCC2`: the GI50 in the experiment on DMS-114, in the experiment with DMS-273, in the experiment with HOP-18, with LXFL 529, in the experiment with M19-MEL and in the experiment with SNB-78 was > 100 µM (inactive) throughout. Moreover, the GI50 in the experiment on XF498 is > 100 µM (inactive).
